# Experimental data taken from US20240124431A1, “2,3-DIHYDRO-4H-BENZO[B][1,4]OXAZIN-4-YL)(5-(PHENYL)-PYRIDIN-3-YL)METHANONE DERIVATIVES AND SIMILAR COMPOUNDS AS CYP11A1 INHIBITORS FOR THE TREATMENT OF PROSTATE CANCER” (ORION CORPORATION, priority 2020, published 2024).
# Biological target: T1, CYP11A1 (Homo sapiens, UniProt P05108)
# T1 construct: endogenous in cells; host or cells: NCI-H295R
# T1 sequence (P05108 40-521): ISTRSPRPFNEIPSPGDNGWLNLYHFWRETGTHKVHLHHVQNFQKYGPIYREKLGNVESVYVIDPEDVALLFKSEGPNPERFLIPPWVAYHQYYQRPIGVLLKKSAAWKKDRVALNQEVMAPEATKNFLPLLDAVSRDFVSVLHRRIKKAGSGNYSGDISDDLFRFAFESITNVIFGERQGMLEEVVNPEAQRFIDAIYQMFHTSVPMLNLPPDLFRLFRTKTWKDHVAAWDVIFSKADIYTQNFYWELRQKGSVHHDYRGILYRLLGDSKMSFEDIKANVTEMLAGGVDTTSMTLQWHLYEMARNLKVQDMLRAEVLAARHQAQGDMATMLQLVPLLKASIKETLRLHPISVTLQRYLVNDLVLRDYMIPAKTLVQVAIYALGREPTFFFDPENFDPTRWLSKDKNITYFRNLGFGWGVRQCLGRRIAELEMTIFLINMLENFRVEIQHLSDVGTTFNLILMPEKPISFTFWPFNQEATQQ
# Experiment: CYP11A1 inhibition: pregnenolone biosynthesis measured by ELISA in NCI-H295R cells
# Assay type: cell-based
# Details: NCI-H295R cells treated for 24 hours, 10 concentrations in duplicates, read-out: IC50 on CYP11A1 inhibition (Group)
# Experimental: The ability of the test compounds to inhibit pregnenolone biosynthesis was measured by enzyme-linked immunosorbent assay (ELISA) detecting pregnenolone (Abnova Pregnenolone ELISA Kit, KA1912). […] To determine the half maximal inhibitory concentration (IC50) of the test compounds on CYP11A1 inhibition, the cells were treated for 24 hours with increasing concentrations of the test compound. The final DMSO concentration was 0.4%. Medium samples were diluted 1:6 and pregnenolone amounts determined with ELISA. Manufacturer's recommended protocols were used and pregnenolone (Sigma-Aldrich, P9129) standards were prepared in cell culture medium. Absorbance (A450) was measured with Envision plate reader (PerkinElmer). All the test compounds were studied at 10 concentrations in duplicates.
row,Compound,IC50 [nM]
1,"O=C(c1cncc(C2=CCCCC2)c1)N1CCOc2ccccc21 [Compound 33, (5-(Cyclohex-1-en-1-yl)pyridin-3-yl)(2,3-dihydro-4H-benzo[b][1,4]oxazin-4-yl)methanone]",< 50
2,"COc1ccc(-c2cncc(C(=O)N3CCCc4ncccc43)c2)cc1 [Compound 34, (3,4-Dihydro-1,5-naphthyridin-1(2H)-yl)(5-(4-methoxyphenyl)pyridin-3-yl)-methanone]",< 50
3,"CCOC(=O)C1CN(C(=O)c2cncc(-c3ccc(F)cc3)n2)c2ccccc2O1 (stereo not shown) [Compound 35, Ethyl 4-(6-(4-fluorophenyl)pyrazine-2-carbonyl)-3,4-dihydro-2H-benzo[b][1,4]-oxazine-2-carboxylate]",< 50
4,"O=C1CCN(C(=O)c2cncc(-c3ccccc3)c2)c2ccccc21 [Compound 36, 1-(5-Phenylnicotinoyl)-2,3-dihydroquinolin-4(1H)-one]",< 50
5,"O=C(c1cncc(-c2ccccc2)n1)N1CCCc2ncccc21 [Compound 37, (3,4-Dihydro-1,5-naphthyridin-1(2H)-yl)(6-phenylpyrazin-2-yl)methanone]",< 50
6,"COc1cccc(-c2cncc(C(=O)N3CCCc4ccccc43)c2)c1 [Compound 38, (3,4-Dihydroquinolin-1(2H)-yl)(5-(3-methoxyphenyl)pyridin-3-yl)methanone]",< 50
7,"O=C(c1cncc(-n2cccc2)c1)N1CCCc2ccccc21 [Compound 39, (5-(1H-Pyrrol-1-yl)pyridin-3-yl)(3,4-dihydroquinolin-1(2H)-yl)methanone]",< 50
8,"O=C(c1cnnc(-c2ccc(F)cc2)c1)N1CCOc2ccccc21 [Compound 40, (2,3-Dihydro-4H-benzo[b][1,4]oxazin-4-yl)(6-(4-fluorophenyl)pyridazin-4-yl)-methanone]",< 50
9,"O=C(c1cncc(-c2ccccc2F)c1)N1CCOc2ccccc21 [Compound 41, (2,3-Dihydro-4H-benzo[b][1,4]oxazin-4-yl)(5-(2-fluorophenyl)pyridin-3-yl)-methanone]",< 50
10,"O=C(c1cncc(-c2ccc(F)cc2)c1)N1CCCc2ncccc21 [Compound 42, (3,4-Dihydro-1,5-naphthyridin-1(2H)-yl)(5-(4-fluorophenyl)pyridin-3-yl)-methanone]",51 to 200
11,"Cn1cc(-c2cncc(C(=O)N3CCOc4ccccc43)n2)cn1 [Compound 43, (2,3-Dihydro-4H-benzo[b][1,4]oxazin-4-yl)(6-(1-methyl-1H-pyrazol-4-yl)-pyrazin-2-yl)methanone]",51 to 200
12,"O=C(c1cncc(-c2ccc(C(F)(F)F)cc2)c1)N1CCOc2ccccc21 [Compound 44, (2,3-Dihydro-4H-benzo[b][1,4]oxazin-4-yl)(5-(4-(trifluoromethyl)phenyl)pyridin-3-yl)methanone]",51 to 200
13,"COc1cc(F)ccc1-c1cncc(C(=O)N2CCOc3ccccc32)c1 [Compound 45, (2,3-Dihydro-4H-benzo[b][1,4]oxazin-4-yl)(5-(4-fluoro-2-methoxyphenyl)-pyridin-3-yl)methanone]",51 to 200
14,"O=S(=O)(c1cncc(-c2ccc(F)cc2)c1)N1CCOc2ccccc21 [Compound 46, 4-((5-(4-Fluorophenyl)pyridin-3-yl)sulfonyl)-3,4-dihydro-2H-benzo[b][1,4]-oxazine]",51 to 200
15,"O=S(=O)(c1cncc(-c2ccc(F)cc2)c1)N1CCCc2ccccc21 [Compound 47, 1-((5-(4-Fluorophenyl)pyridin-3-yl)sulfonyl)-1,2,3,4-tetrahydroquinoline]",51 to 200
16,"O=C(c1cncc(-c2cccc(C(F)(F)F)c2)c1)N1CCOc2ccccc21 [Compound 48, (2,3-Dihydro-4H-benzo[b][1,4]oxazin-4-yl)(5-(3-(trifluoromethyl)phenyl)pyridin-3-yl)methanone]",51 to 200
17,"O=C(c1cncc(-c2ccc(F)nc2)c1)N1CCOc2ccccc21 [Compound 49, (2,3-Dihydro-4H-benzo[b][1,4]oxazin-4-yl)(6′-fluoro-[3,3′-bipyridin]-5-yl)-methanone]",51 to 200
18,"COc1cccc(-c2cncc(C(=O)N3CCOc4ccccc43)c2)c1 [Compound 50, (2,3-Dihydro-4H-benzo[b][1,4]oxazin-4-yl)(5-(3-methoxyphenyl)pyridin-3-yl)-methanone]",51 to 200
19,"C=C(c1ccccc1)c1cncc(C(=O)N2CCCc3ccccc32)c1 [Compound 51, (3,4-Dihydroquinolin-1(2H)-yl)(5-(1-phenylvinyl)pyridin-3-yl)methanone]",51 to 200
20,"O=C(c1cnnc(-c2ccccc2)c1)N1CCCc2ccccc21 [Compound 52, (3,4-Dihydroquinolin-1(2H)-yl)(6-phenylpyridazin-4-yl)methanone]",51 to 200
21,"COc1ccc2c(c1)CCCN2C(=O)c1cncc(-c2ccccc2)c1 [Compound 53, (6-Methoxy-3,4-dihydroquinolin-1(2H)-yl)(5-phenylpyridin-3-yl)methanone]",51 to 200
22,"O=C(c1cncc(-c2ccc(CO)cc2)c1)N1CCCc2ccccc21 [Compound 54, (3,4-Dihydroquinolin-1(2H)-yl)(5-(4-(hydroxymethyl)phenyl)pyridin-3-yl)-methanone]",51 to 200
23,"O=C(c1cncc(-c2ccc(F)cc2)c1)N1CCOC2CCCCC21 (stereo not shown) [Compound 55, (5-(4-Fluorophenyl)pyridin-3-yl)(octahydro-4H-benzo[b][1,4]oxazin-4-yl)-methanone]",51 to 200
24,"O=C(c1cncc(-c2ccc(F)cc2)c1)N1CCO[C@H]2CCCC[C@@H]21 [Compound 56, (5-(4-Fluorophenyl)pyridin-3-yl)((4aS,8aS)-octahydro-4H-benzo[b][1,4]oxazin-4-yl)methanone]",51 to 200
25,"O=C(c1cncc(-c2ccc(F)cc2)c1)N1CCO[C@@H]2CCCC[C@H]21 [Compound 57, (5-(4-Fluorophenyl)pyridin-3-yl)((4aR,8aR)-octahydro-4H-benzo[b][1,4]oxazin-4-yl)methanone]",201 to 2500

# The remaining lines, values ahead:
row,IC50 [nM],Compound
1,< 50,"CN1CCN(C(=O)c2cncc(-c3ccc(F)cc3)n2)c2ccccc21 [Compound 21, (6-(4-Fluorophenyl)pyrazin-2-yl)(4-methyl-3,4-dihydroquinoxalin-1(2H)-yl)-methanone]"
2,< 50,"CC1CCc2ccccc2N1C(=O)c1cncc(-c2ccc(F)cc2)n1 (stereo not shown) [Compound 22, (6-(4-Fluorophenyl)pyrazin-2-yl)(2-methyl-3,4-dihydroquinolin-1(2H)-yl)-methanone]"
3,< 50,"COc1ccc(-c2cncc(C(=O)N3CCOc4ccccc43)c2)cc1 [Compound 23, (2,3-Dihydro-4H-benzo[b][1,4]oxazin-4-yl)(5-(4-methoxyphenyl)pyridin-3-yl)-methanone]"
4,< 50,"O=C(c1cncc(-c2ccc(F)cc2)c1)N1CCOc2ccccc21 [Compound 24, (2,3-Dihydro-4H-benzo[b][1,4]oxazin-4-yl)(5-(4-fluorophenyl)pyridin-3-yl)-methanone]"
5,< 50,"COc1cccc(-c2cncc(C(=O)N3CCCc4ccccc43)n2)c1 [Compound 25, (3,4-Dihydroquinolin-1(2H)-yl)(6-(3-methoxyphenyl)pyrazin-2-yl)methanone]"
6,< 50,"CC1COc2ccccc2N1C(=O)c1cncc(-c2ccc(F)cc2)n1 (stereo not shown) [Compound 26, (6-(4-Fluorophenyl)pyrazin-2-yl)(3-methyl-2,3-dihydro-4H-benzo[b][1,4]oxazin-4-yl)methanone]"
7,< 50,"O=C(c1cncc(-c2ccc(F)c(O)c2)c1)N1CCOc2ccccc21 [Compound 27, (2,3-Dihydro-4H-benzo[b][1,4]oxazin-4-yl)(5-(4-fluoro-3-hydroxyphenyl)-pyridin-3-yl)methanone]"
8,< 50,"O=C(c1cncc(-c2ccc(F)cc2F)c1)N1CCOc2ccccc21 [Compound 28, (5-(2,4-Difluorophenyl)pyridin-3-yl)(2,3-dihydro-4H-benzo[b][1,4]oxazin-4-yl)-methanone]"
9,< 50,"O=C(c1cncc(-c2ccc3c(c2)OCC3)n1)N1CCOC2CCCCC21 (stereo not shown) [Compound 29, (6-(2,3-Dihydrobenzofuran-6-yl)pyrazin-2-yl)(octahydro-4H-benzo[b][1,4]-oxazin-4-yl)methanone]"
10,< 50,"O=C(c1cnnc(-c2ccc(F)cc2)c1)N1CCCc2ccccc21 [Compound 30, (3,4-Dihydroquinolin-1(2H)-yl)(6-(4-fluorophenyl)pyridazin-4-yl)methanone]"
11,< 50,"CN1CCN(C(=O)c2cncc(-c3ccc(F)cc3)c2)c2ccccc21 [Compound 31, (5-(4-Fluorophenyl)pyridin-3-yl)(4-methyl-3,4-dihydroquinoxalin-1(2H)-yl)-methanone]"
12,< 50,"O=C(c1cncc(-c2ccc([N+](=O)[O-])cc2)c1)N1CCOc2ccccc21 [Compound 32, (2,3-Dihydro-4H-benzo[b][1,4]oxazin-4-yl)(5-(4-nitrophenyl)pyridin-3-yl)-methanone]"
